Assay: Humidity exposure of amorphous form
Assay type: physicochemical
Conditions: ambient humidity or 92% RH

For `Cc1ccc(NC(=O)c2ccnc(C(F)(F)F)c2)cc1-c1cc(OCCO)nc(N2CCOCC2)c1` [amorphous form, N-(3-(2-(2-hydroxyethoxy)-6-morpholinopyridin-4-yl)-4-methylphenyl)-2-(trifluoromethyl)isonicotinamide], the “Physical form stability under humidity” value was “remains stable and does not convert to HA”.
